Test results taken from US20240336568A1, “SELECTIVE PHD1 INHIBITOR COMPOUNDS, COMPOSITIONS, AND METHODS OF USE” (Akebia Therapeutics, Inc., priority 2021, published 2024).

Each molecule was assayed on full-length human prolyl-4-hydroxylase domain (PHD) enzymes, PHD1 and PHD2 (assay: TR-FRET assay, selectivity of compounds for PHD1 over PHD2 (ratio of Kis calculated from IC50s)). Conditions: ratio of Kis (PHD2 Ki/PHD1 Ki), Kis calculated from TR-FRET IC50s by Cheng Prussoff equation; 1 uM 2-OG.
Type: biochemical
Excerpt: Time-resolved fluorescence resonance energy transfer (TR-FRET) assay was utilized to determine the enzymatic half maximal inhibitory concentration (IC50) value of PHD inhibitors against the full-length human prolyl-4-hydroxylase domain (PHD) enzymes, PHD1 and PHD2. The TR-FRET assay was developed based on the specific binding of hydroxylated HIF-la peptide with the complex formed by VHL, EloB and EloC (VBC), to generate a fluorescent signal. Terbium (Tb)-Donor (monoclonal antibody anti-6His-Tb-cryptate Gold) and D2-acceptor (streptavidin [SA]-D2) of TR-FRET are linked to the VBC complex and to HIF-1α peptide, respectively. The VBC complex binds specifically to the HIF-1α peptide when it is hydroxylated, allowing energy transfer from TR-FRET donor to acceptor (FIG. 1).
TR-FRET Reagents. Monoclonal antibody anti-6His-Tb-cryptate Gold (catalog #61HI2TLA) and streptavidin (SA)-D2 (catalog #610SADLA) were purchased from CisBio International (Bedford, MA, USA).
N-terminus biotinylated HIF-1α C35 synthetic peptide representing amino acids 547 to 581 and including the proline 564 PHD2 hydroxylation site was purchased from California Peptide Research (Salt Lake City, UT, USA).
VBC Complex. His-tagged recombinant VHL protein, EloB, EloC complex (His-VBC) was supplied by Axxam (Milan, Italy). Recombinant human VHL (National Center for Biotechnology Information [NCBI] accession number NP_00542.1) contained a His tag at the C-terminus of amino acids 55 to 213 and is referred to as VHL-His. VHL-His was co-expressed in E. coli with full-length human EloB (NCBI accession number Q15370.1) and full-length human EloC (NCBI accession number Q15369.1) and purified by affinity chromatography on a nickel-nitrilotriacetic acid (Ni-NTA) column as the His-VBC complex. Purity (˜80%) was assessed by sodium dodecyl sulfate polyacrylamide gel electrophoresis (SDS-PAGE).
PHD1. Recombinant human PHD1 protein (catalog #81064, Lot #24717001) was purchased from Active Motif (Carlsbad, CA, USA). PHD1 was expressed in a baculovirus expression system as the full-length protein (NCBI accession number NP_542770.2) with an N-terminal FLAG tag (molecular weight 44.9 kDa). Purity (>90%) was assessed by SDS-PAGE.
PHD2. The full-length human PHD2 enzyme was produced with a baculovirus infected insect cell (BIIC) expression system by Beryllium (Bedford, MA, USA). The PHD2 construct contained amino acids 1 to 426 of PHD2 (UniProt Knowledgebase[UniProtKB]/Swiss-Prot accession number Q9GZT9.1), and a His tag and a Tobacco Etch Virus (TEV) protease cleavage site at the N-terminus. The construct was expressed in Sf9 insect cells, purified by Ni-NTA column and digested with TEV protease to remove the His tag.
Compounds were preincubated with PHD enzyme in a 10 μL reaction volume in white 384-well Optiplate microplates (catalog #6007290, Perkin Elmer, Waltham, MA, USA). For this, 5 μL compound was serially diluted with dilution buffer (50 mM HEPES [4-(2-hydroxyethyl)-1-piperazineethanesulfonic acid] pH 7.5, 50 mM sodium chloride [NaCl], 0.01% Tween-20, 0.01% purified bovine serum albumin [BSA]) and mixed with 5 μL PHD enzyme mix prepared as a 4× concentrate in the dilution buffer containing PHD enzyme (60 nM PHD1, 20 nM PHD2, 140 nM PHD3), 40 μM ferrous ammonium sulfate (FAS), 4 mM sodium (Na) ascorbate. The plates were incubated for 30 minutes at room temperature without rotation.
Five microliters of the VBC/anti-6His-Tb-cryptate Gold mix prepared as a 4× concentrate in dilution buffer containing 20 nM His-VBC, 1.32 nM monoclonal antibody anti-6His-Tb-cryptate Gold was then added. This step was followed immediately by the addition of 5 μL of the HIF-1α C35 substrate mix prepared as a 4× concentrate in the dilution buffer containing 120 nM biotin-labeled HIF-1α C35, 132 nM SA-D2, 4 μM 2-oxoglutarate (2-OG) to reach a final reaction volume of 20 μL. […]

Structure (SMILES)	Selectivity of PHD1 over PHD2 [fold]
O=C(O)CCNC(=O)c1ncc(-c2cnn(-c3ccccc3)c2)cc1O [compound 54, 3-(3-hydroxy-5-(1-phenyl-1H-pyrazol-4-yl)picolinamido)propanoic acid]	~11
COc1cc2c(-c3cnc(C(=O)NCC(C)(C)C(=O)O)c(O)c3)cn(C)c2cn1 [compound 55, 3-(3-hydroxy-5-(5-methoxy-1-methyl-1H-pyrrolo[2,3-c]pyridin-3-yl)picolinamido)-2,2-dimethylpropanoic acid]	~96
CC(C)(CNC(=O)c1ncc(-c2scc3c2OCCO3)cc1O)C(=O)O [compound 56, 3-(5-(2,3-dihydrothieno[3,4-b][1,4]dioxin-5-yl)-3-hydroxypicolinamido)-2,2-dimethylpropanoic acid]	~44
CC(C)(CNC(=O)c1ncc(-c2ccc3c(=O)[nH]ncc3c2)cc1O)C(=O)O [compound 57, 3-(3-hydroxy-5-(1-oxo-1,2-dihydrophthalazin-6-yl)picolinamido)-2,2-dimethylpropanoic acid]	~64
CCOc1ccc2cc(-c3cnc(C(=O)NCC(C)(C)C(=O)O)c(O)c3)ccc2c1 [compound 58, 3-(5-(6-ethoxynaphthalen-2-yl)-3-hydroxypicolinamido)-2,2-dimethylpropanoic acid]	~911
CC(C)(CNC(=O)c1ncc(-c2ccc3cc(NS(C)(=O)=O)ccc3c2)cc1O)C(=O)O [compound 59, 3-(3-hydroxy-5-(6-(methylsulfonamido)naphthalen-2-yl)picolinamido)-2,2-dimethylpropanoic acid]	~88
Cc1c(-c2cnc(C(=O)NCC(C)(C)C(=O)O)c(O)c2)ccc2ccccc12 [compound 60, 3-(3-hydroxy-5-(1-methylnaphthalen-2-yl)picolinamido)-2,2-dimethylpropanoic acid]	~204
CC(C)c1ccc2sc(-c3cnc(C(=O)NCC(C)(C)C(=O)O)c(O)c3)cc2c1 [compound 61, 3-(3-hydroxy-5-(5-isopropylbenzo[b]thiophen-2-yl)picolinamido)-2,2-dimethylpropanoic acid]	~341
O=C(O)CCNC(=O)c1ncc(-c2ccc3ccccc3c2)cc1O [compound 62, 3-(3-hydroxy-5-(naphthalen-2-yl)picolinamido)propanoic acid]	~24
